Measured values reported in PubChem BioAssay AID493240 (Broad Institute, 2011).

Tested on: SK-MEL-5 viability, ATP luminescence (CellTiter-Glo), 24 h
Assay: SK-MEL-5 parental cell viability loss, dose response, orthogonal assay for MITF inhibitor project, CellTiter-Glo, cherry-picked, set 3 (AID 493240)

Row | Structure (SMILES) | AC50 [µM]
1 | CC(=O)N(\C=C/C=C/C=C1\Sc2ccccc2C1=O)c1ccccc1 | 21.2
2 | Cc1ccc2[nH]c(=O)c(CN(CCCN(C)C)C(=O)Nc3cccc(Cl)c3)cc2c1 | 24.3
3 | Cc1ccc(NC(=O)CCl)cc1S(=O)(=O)N1CCCCCC1 | 28.3
4 | Cc1c(N=C2C=CC(=O)c3ccccc32)c(=O)n(-c2ccccc2)n1C | 30.9
5 | CCOC(=O)c1ccc(NC2=CC(=O)C(=O)c3ccccc32)cc1 | 14.3
6 | CC1CCC(C(C)C)C(OC(=O)Cn2c(-c3ccc(Cl)cc3)[n+](C)c3ccccc32)C1 (stereo not given) | 10.4
7 | CC1CCC(C(C)C)C(OC(=O)Cn2c(-c3ccccc3)[n+](C)c3ccccc32)C1 (stereo not given) | 5.45
8 | COC(=O)C1=C(C)N(Cc2ccccc2)C(=NCCc2cccnc2)N[C@H]1c1ccc(Br)cc1 | 19.2
9 | O=C(/C=C/Nc1ccccc1Br)c1ccccn1 | 21.9
10 | CCCCCCCNC(=O)C1(CC2CC(c3ccc(Cl)cc3)=NO2)CCNCC1 (stereo not given) | 18.2
11 | COc1ccc(C(CCNC(C)c2ccccc2)c2ccc(F)cc2)cc1 (stereo not given) | 17.6
12 | CC1CCC(C(C)C)C(OC(=O)Cn2c(-c3ccc(Br)cc3)[n+](C)c3ccccc32)C1 (stereo not given) | 15.2
13 | Cc1ccccc1-c1nc(-c2ccccn2)no1 | 20.7
14 | Cc1ccc2c(c1)Oc1ccc(NC(=O)CCl)cc1C(=O)N2 | 9.65
15 | O=C(CCl)Nc1cccc(S(=O)(=O)N2CCCCCC2)c1 | 11.2
16 | COc1ccc(-c2nn(-c3ccccc3)cc2/C=N/N=C(N)N)cc1OC | 18
17 | Cc1ccc(NC2=C(Cl)C(=O)c3ccccc3C2=O)cc1 | 9.83
18 | CC(C)Oc1ccc(C(CCN)C2CCCCC2)cc1 (stereo not given) | 16.2
19 | CCN(CC)CCC(=O)N1C/C(=C/c2ccccc2)C(=O)/C(=C\c2ccccc2)C1 | 24
20 | CCN1/C(=C/c2cc[n+](C)cc2)C=Cc2cc(C)ccc21 | 25.7
21 | Cn1c(SCC(=O)N/N=C/c2ccc([N+](=O)[O-])s2)nnc1-c1ccccc1 | 21.5
22 | Cn1nnnc1Sc1ncnc2scc(-c3ccc(C#N)cc3)c12 | 18.7

Row | Structure (SMILES) | AC50 [µM]
23 | O=C(CNc1cccc2ccccc12)N/N=C/c1ccc([N+](=O)[O-])o1 | 19.9
24 | Cc1ccc(C)c(NC(=O)/C(C#N)=C/c2cn(CC(=O)NCc3ccco3)c3ccccc23)c1 | 15.2
25 | CCCCN1CCc2c1nc1ccc(Br)cc1c2N | 25.6
26 | COc1ccc(C(=O)/C=C/C(=O)N(CC(=O)NC2CCCCC2)Cc2ccccc2OC)c(O)c1 | 9.67
27 | O=C(Cn1ncc(Cl)c(Cl)c1=O)N1CCc2ccccc21 | 22.6
28 | O=[N+]([O-])c1cccc2c(N3CCCC3)ccnc12 | 15.3
29 | Cc1ccc(NC(=O)c2ncn(CCCN[C@H](C)c3cccc4ccccc34)n2)cc1C | 25.8
30 | COc1ccc(C(=O)/C(C#N)=N/Nc2ccc([N+](=O)[O-])cc2)cc1 | 18.5
31 | Cc1ccc2nc(N(CCCN(C)C)C(=O)c3ccc4c(c3)CCCC4)sc2c1 | 17.7
32 | Cc1cc(NC(=O)c2cncc(Br)c2)ccc1NC(=O)c1cc2ccccc2o1 | 21.3
33 | CC1CCC/C=C/C(=O)c2c(O)cc(O)cc2CC(=O)O1 (stereo not given) | 31.7
34 | O=C(/C=C/c1cccc([N+](=O)[O-])c1)c1cccs1 | 27.8
35 | COc1cccc(/C=N/Nc2ccc(C(=O)O)cc2)c1O | 19.9
36 | O=C(Nc1ccccn1)c1ccc(Br)s1 | 2.08
37 | O=C(COc1ccc(Cl)cc1Cl)Nc1ccccn1 | 19.6
38 | COc1ccc(C(=O)/C=C/C(=O)N(CC(=O)NC2CCCCC2)Cc2cccs2)c(O)c1 | 20.5
39 | O=C(N/N=C/c1ccc([N+](=O)[O-])o1)c1ccc(O)cc1 | 16.7
40 | O=C(O)/C=C/C(=O)c1ccc2c(c1)CCc1ccccc1-2 | 30.5
41 | CCCN1CCC(NCc2cn(C)nc2-c2ccc(Oc3ccccc3)cc2)CC1 | 22.3
42 | Cc1c(C(=O)Nc2ccc(S(=O)(=O)N(C)C3CCN(C)CC3)cc2)oc2c(Cl)cccc12 | 29.4
43 | COc1cc(/C=N/NC(N)=O)c(Br)cc1OCC(=O)Nc1ccccc1C | 27.2
44 | O=C(CCl)Nc1cccc(-c2cnc3ccccc3n2)c1 | 17.3

Row | Structure (SMILES) | AC50 [µM]
45 | CC(=O)Nc1sc(C)c(C)c1C(=O)OCC(=O)N(CC(C)C)c1c(N)n(Cc2ccccc2)c(=O)[nH]c1=O | 8.38
46 | O=c1c(Cl)c2oc3ccccc3nc-2c2ccccc12 | 5.67
47 | O=C(Nc1ccc(Cl)c(S(=O)(=O)N2CCOCC2)c1)c1ccc(OCC2CCCO2)cc1 (stereo not given) | 9.27
48 | Cc1ccccc1-c1nc(CN2CCC(C(=O)NCCCN3CCCC(C)C3)CC2)c(C)o1 (stereo not given) | 28.9
49 | CC1CC2(C)Oc3ccccc3CC2C(C)C1CNCCCN(C)C (stereo not given) | 16.2
50 | Cc1ccc(-n2cc(CNCCCn3ccnc3C)c(-c3ccc(F)cc3)n2)cc1 | 17.6
51 | COC1=C(Nc2ccccc2)C(=O)c2ccccc2C1=O | 5.11
52 | O=C(Cn1ncc(Cl)c(Cl)c1=O)NC1CCCCC1 | 20.5
53 | CC(C)C1CC(CCNCc2ccc(N(C)C)cc2)(c2ccccc2)CCO1 (stereo not given) | 21.9
54 | O=C(/C=C/c1ccc(Cl)c([N+](=O)[O-])c1)c1ccc(O)cc1 | 27.3
55 | COc1ccc(-c2cc(-c3ccccc3)[n+](C)c(-c3ccccc3)c2)cc1 | 21.2
56 | COc1ccc(Oc2cc(NC(=O)c3nn(C)cc3[N+](=O)[O-])cc([N+](=O)[O-])c2)cc1 | 30.4
57 | N=c1n(Cc2ccc(Cl)cc2)c2ccccc2n1CC(O)COc1ccccc1 (stereo not given) | 19.1
58 | CN1CCC(N(C)C(=O)/C=C/c2cn(-c3ccccc3)nc2-c2cccs2)CC1 | 20.1
59 | Cc1ccc(-c2nc(C(=O)NCCCN(C)C)cc3c2[nH]c2ccccc23)cc1 | 18.8
60 | CS(=O)(=O)c1ncc(Cl)c(C(=O)Nc2ccc3ccccc3c2)n1 | 18.3
61 | N=c1n(CC(=O)c2ccc(Br)cc2)c2ccccc2n1Cc1ccccc1 | 18.1
62 | Cc1ccc(-c2c[n+](Cc3ccc(Cl)c(Cl)c3)c3n2CCC3)cc1 | 15.3
63 | COc1cc(/C=C/C(=O)c2ccc3c(c2)OCCO3)cc(Br)c1OCC(=O)N(C)C | 18
64 | O=C1C(Nc2ccccc2)=C(N2CCCCC2)C(=O)c2ccccc21 | 12.7
65 | COc1ccc2oc(C(=O)Nc3ccc(S(=O)(=O)N(C)C4CCN(C)CC4)cc3)c(C)c2c1 | 17.5
66 | O=C1C(Cl)=C(N2CCN(c3ccccc3[N+](=O)[O-])CC2)C(=O)c2ccccc21 | 10.8

Row | Structure (SMILES) | AC50 [µM]
67 | CC1(C)Cc2ccccc2C2=NNC(=O)C2=N1 | 8.54
68 | C#CCCc1ccccc1/C=[N+](/C)[O-] | 20.5
69 | COc1ccc(S(=O)(=O)Nc2ccc(O)c3ccccc23)cc1 | 14.7
70 | O=C(Nc1ccc(S(=O)(=O)NC2=NCCCCC2)cc1)c1ccc([N+](=O)[O-])s1 | 23
71 | CC(C)(C)c1ccc(Cn2c(=N)n(CC(O)c3ccco3)c3ccccc32)cc1 (stereo not given) | 19.9
72 | CC(C)(c1ccccc1)c1ccc(OCC(O)CNC2CCN(Cc3ccccc3)CC2)cc1 (stereo not given) | 19.9
73 | CCCCn1c(=N)n(CC(=O)c2ccc(Br)s2)c2ccccc21 | 18.5
74 | CCN1CCCC1CNC(=O)c1ccc2c(c1)NC(=O)/C(=C\c1ccc(C)cc1)S2 (stereo not given) | 18.7
75 | O=C(CCl)Nc1ccc(-c2ccccc2)cc1 | 21.9
76 | Cc1ccc2sc(N(CCCN(C)C)C(=O)c3ccc(S(=O)(=O)N(C)C4CCCCC4)cc3)nc2c1C | 26.7
77 | CCOC(=O)c1c(C)oc2c1C(=O)c1ccccc1C2=O | 3.37
78 | CC(C)(C)c1ccc(-c2cn(-c3ccc(Br)cc3)c3[n+]2CCCS3)cc1 | 11.4
79 | CCOC(=O)Cn1c(=NC(=O)c2ccc([N+](=O)[O-])s2)sc2ccccc21 | 6.03
80 | O=C(N/N=C/c1ccc([N+](=O)[O-])s1)C(O)c1ccccc1 (stereo not given) | 35.1
81 | CC1CCC(C(C)C)C(OC(=O)Cn2c(-c3ccc(F)cc3)[n+](C)c3ccccc32)C1 (stereo not given) | 8.02
82 | O=C(CCl)N(c1ccccc1)C1CCS(=O)(=O)C1 (stereo not given) | 29.9
83 | CCCCn1c(=N)n(CCOc2ccc(C)cc2)c2ccccc21 | 17.6
84 | COc1cccc2c1C(=O)C=C(C)C2=O | 18.8
85 | CC(=O)N1CCc2c(sc(NC(=O)c3ccc([N+](=O)[O-])o3)c2C#N)C1 | 17.2
86 | Cc1ccc(-n2cc(CNCCCn3cccn3)c(-c3cccc(C)c3)n2)cc1 | 20.1
87 | CC1CCC(C(C)C)C(OC(=O)C[n+]2cc(-c3ccc(Cl)cc3)n3c2CCCCC3)C1 (stereo not given) | 17.2
88 | Cc1ccc(C(=O)N/C(=C\c2ccc(-c3ccc(Br)cc3)o2)C(=O)NCCCN(C)C)cc1 | 17.1

Row | Structure (SMILES) | AC50 [µM]
89 | O=C(CCl)N1c2ccccc2SCC1c1ccccc1 (stereo not given) | 21.3
90 | Cc1ccccc1NC(=O)Cc1nc(COC(=O)c2ccc(S(C)(=O)=O)c([N+](=O)[O-])c2)cs1 | 27.3
91 | CCN1CCN(C2=C(NS(=O)(=O)c3ccc(C)cc3)C(=O)c3ccccc3C2=O)CC1 | 21.9
92 | CCCCN1C=CC(=C2C(=O)c3ccccc3C2=O)C=C1 | 19.9
93 | CC1=NNC(=O)/C1=C\c1cn(-c2ccccc2)nc1-c1ccc(F)cc1 | 15.5
94 | Nc1c(N(CCC2=CCCCC2)C(=O)COc2ccc([N+](=O)[O-])cc2)c(=O)[nH]c(=O)n1Cc1ccccc1 | 33.7
95 | COc1ccc(C(=O)/C=C/C(=O)N(CC(=O)NC2CCCCC2)CC2CCCO2)c(O)c1 (stereo not given) | 11.9
96 | CCOC(=O)c1ccc(NC(=O)c2ccc(C)c(S(=O)(=O)N3CCOCC3)c2)cc1 | 17.5
97 | CCN1CCN(c2ccc(Nc3ccnc4ccccc34)cc2)CC1 | 23.8
98 | CCCCC[n+]1ccn(C2=C([O-])c3ccccc3C(=O)/C2=N\S(=O)(=O)c2ccccc2)c1 | 15.5
99 | CCN(CC)CCNC(=O)c1ccc(NC(=O)c2cn(-c3ccccc3)nc2-c2cccs2)cc1 | 19.9
100 | CN(C)S(=O)(=O)c1ccc(-c2csc(N/N=C/c3ccc(O)cc3)n2)cc1 | 17.5
101 | CN(C)c1ccc(C2=NOC(CN3C(=O)c4ccccc4S3(=O)=O)C2)cc1 (stereo not given) | < 0.015
102 | CCN(Cc1ccccc1)c1ccc(/C=N/N=C(N)N)cc1 | 17.9
103 | CCn1c(/C=C/N(C)c2ccccc2)[n+](CC)c2ccc(Cl)cc21 | 13.9
104 | COc1ccc2[nH]cc(C(=O)CCl)c2c1 | 17.4
105 | COC1=C(Nc2ccc(O)cc2)C(=O)c2ccccc2C1=O | 8.43
106 | CC(C)(C)c1ccc(OCCn2ccccc2=O)cc1 | 28.7
107 | COC(=O)c1ccc2c(c1O)C(=O)c1ccccc1C2=O | 3.74
108 | CN(C)CCCNC(=O)/C(=C\c1ccc(-c2ccc(Br)cc2)o1)NC(=O)c1ccccc1 | 16.7
109 | COc1ccccc1NC(=O)c1nc(S(=O)(=O)Cc2ccccc2)ncc1Cl | 29.4
110 | CN(C)CCCNc1nc2sc3c(c2c(=O)n1CCc1ccccc1)CCCCC3 | 19.8
